Measurements reported in patent publication US12110289B2, “Heterocyclic compounds, preparation methods and uses thereof” (InventisBio Co., Ltd., priority 2020, dated 2024).

Experiments:
[1] = test system: Lung cancer cell line NCI-H358 containing KRas G12C mutation; assay: Assay for cell proliferation (Cell-titer Glo, 5 days); type: cell-based, human
In short: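 NCI-H358 (KRas G12C) cells, 2000 per well, attached overnight at 37 °C, 5% CO2, then treated with compound for 5 days at 0.5% DMSO final. Proliferation measured by CellTiter-Glo luminescence after 10 min at RT.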

[2] = Human hepatocyte clearance study; type: in vitro ADME; details: human, pooled cryopreserved human hepatocytes (suspension), working cell density 2 × 10^6 viable cells/mL
Method: (§1) The in vitro human hepatocyte clearance of compounds described here was studied using pooled human hepatocytes purchased from BioreclamationIVT (Westbury, NY, Cat #X008001, Lot #TQJ). The assay was conducted according to manufacturer's instruction. Briefly, 10 mM stock solutions of test compounds and positive control (Verapamil) were prepared in 100% DMSO. Thawing media (50 mL) used in the study consists of 31 mL Williams E medium (GIBCO Cat #12551-032), 15 mL isotonic percoll (GE Healthcare Cat #17-0891-09), 500 uL 100× GlutaMax (GIBCO Cat #35050), 750 uL HEPES (GIBCO Cat #15630-080), 2.5 mL FBS (Corning Cat #35-076-CVR), 50 uL human insulin (GIBCO Cat #12585-014) and 5 uL dexamethasone (NICPBP). Incubation media is made of Williams E medium supplemented with 1× GlutaMax. Both thawing medium and incubation medium (serum-free) were placed in a 37° C. water bath for at least 15 minutes prior to use. Compound stock solutions were diluted to 100 μM by combining 198 μL of 50% acetonitrile/50% water and 2 μL of 10 mM stock solution. Verapamil was use as positive control in the assay. Vials of cryopreserved hepatocytes were removed from storage and thawed in a 37° C. water bath with gentle shaking. Contents of the vial were poured into the 50 mL thawing medium conical tube. Vials were centrifuged at 100 g for 10 minutes at room temperature. […] […] […] The boiled hepatocytes were used to prepare negative samples. Aliquots of 198 μL hepatocytes were dispensed into each well of a 96-well non-coated plate. The plate was placed in the incubator on an orbital shaker at 500 rpm for approximately 10 minutes. Aliquots of 2 μL of the 100 μM test compound or positive control were added into respective wells of the non-coated 96-well plate to start the reaction. This assay was performed in duplicate. The plate was incubated in the incubator on an orbital shaker at 500 rpm for the designated time points. Twenty-five microliter of contents were transferred and mixed with 6 volumes (150 μL) of cold acetonitrile with IS (200 nM imipramine, 200 nM labetalol and 200 nM diclofenac) to terminate the reaction at time points of 0, 15, 30, 60, 90 and 120 minutes. Samples were centrifuged at 3,220 g for 25 minutes and aliquots of 150 μL of the supernatants were used for LC-MS/MS analysis. For data analysis, all calculations were carried out using Microsoft Excel. Peak areas were determined from extracted ion chromatograms. The in vitro half-life (t1/2) of parent compound was determined by regression analysis of the percent parent disappearance vs. time curve. […] Scaling factors for in vivo intrinsic clearance prediction using human hepatocytes are listed as: liver weight (g liver/kg body weight): 25.7; hepatocyte concentration (10^6 cells/g liver): 99; scaling factor: 2544.3.

pooled human hepatocytes = assay: Human hepatocyte clearance study; type: in vitro ADME
Method: as §1

[3] = Rat PK study, single i.g. dose; type: in vivo; details: female, SD, plasma, PO, 10 mg/kg
Method: The pharmacokinetic (PK) profile of compounds following single i.g in SD rat obtained from […] Laboratory Animal Co., LTD of Shanghai was determined. Three female rats of weight around 220 g were used. Compounds were prepared at 1 mg/ml with the formulation of 10% DMSO+10% solutol HS15+80% (10% HPβCD in water). Blood samples (0.2 mL) were collected at 0 h (pre-dose) and 0.25, 0.5, 1, 2, 4, 8, 24 h time points after administration of compounds at the dose of 10 mg/kg. The collected blood samples were centrifuged without delay and the plasma was separated and transferred into tubes before storage at -70° C. prior to analysis. Aliquots of the plasma unknowns, blank and calibration standards were placed in 1.5 mL tubes and mixed with acetonitrile/methanol (1/1, v/v) containing IS. After vortexing for 5 min, each sample was centrifuged at 14000 rpm at 4° C. for 10 min. The supernatant were injected into the LC-MS/MS system. […] Eluates were analyzed using an API4000 Q-Trap mass spectrometer with a TurboIonSpray interface. Chromatographic separation was done with a mobile phase composed of water with 0.1% formic acid (solution A) and acetonitrile with 0.1% formic acid (solution B). The mobile phase was delivered at a flow rate of 0.6 mL/min, using a stepwise gradient elution program. To improve the sensitivity of the test compound screening, a MRM method in positive electrospray ionization mode was employed. Mass spectrometry data was acquired and analyzed using AB Sciex Analyst version 1.6.2 software. The pharmacokinetic parameters were derived using standard noncompartmental methods with Phoenix WinNonLin Professional Version 8.1.

SW837 xenograft = assay: Colorectal adenocarcinoma SW837 xenograft model, tumor volume; type: in vivo, BALB/c nude mice
Method: (§2) All the procedures related to animal handling, care and the treatment in this study were performed according to the guidelines approved by the Institutional Animal Care and Use Committee (IACUC) of SIPPER B&K following the guidance of the Association for Assessment and Accreditation of Laboratory Animal Care (AAALAC). At the time of routine monitoring, the animals were checked for any effects of tumor growth on normal behavior such as mobility, food and water consumption (by looking only), body weight gain/loss (body weights were measured twice weekly), eye/hair matting and any other abnormal effect. Death and observed clinical signs were recorded on the basis of the numbers of animals within each subset.
(§3) The NCI-H358, SW837, NCI-H2122 tumor cells were purchased from the American Type Culture Collection (ATCC). Cells were maintained in vitro as monolayer cultured in RPMI-1640 or DMEM medium supplemented with 10% fetal bovine serum, 50 IU/ml penicillin/streptomycin (GIBCO) at 37° C. in an atmosphere of 5% CO2 in air. The tumor cells were routinely sub cultured twice weekly by trypsin-EDTA treatment. The cells growing in an exponential growth phase were harvested and counted for tumor inoculation.
(§4) For tumor bearing models, female 6- to 8-week-old athymic BALB/c nude mice were used for human cancer cell lines. Each mouse was inoculated subcutaneously at the right flank with tumor cells (10×10^6) in 0.1 ml of PBS. The treatments were started when the average tumor size reached approximately 200-250 mm^3. Carboplatin, Cisplatin was injected twice a week by i.p. Vehicles and other test articles were given orally as a suspension by gavage once daily during the study or treatment period.
(§5) Tumor volume was calculated by measuring two perpendicular diameters using the following formula: (L×W 2)/2 in which L and W refer to the length and width tumor diameter, respectively. Results are expressed as mean and standard deviation of the mean.

NCI-H358 xenograft = assay: NSCLC H358 xenograft model, tumor volume; type: in vivo, BALB/c nude mice; details: 30 mg/kg oral once daily vs AMG510 at 30 mg/kg; FIG. 2
Method: as §2, §3, §4, §5

SMILES: C=CC(=O)N1C[C@H](C)N(c2nc(=O)n(-c3c(C4CC4)ncnc3C3CC3)c3nc(-c4c(N)cccc4F)c(F)cc23)C[C@H]1C [Compound 44]
- potency in inhibiting KRAS G12C compared with corresponding isopropyl analogs [1]: better potency
- IC50 ([1]; Homo sapiens, NCI-H358, 120 h, read-out: IC50 (nM), Inhibition of NCI-H358 Cell Proliferation): 2.1 nM
- fold more potent: 2-amino-6-fluoro-phenyl compound vs. corresponding 2-fluoro-phenyl compound at R8 ([1]; NCI-H358 IC50 comparison): about 19 ×
- hepatocyte CLint at 1 µM ([2]; read-out: Human In vitro Clint (μl/min/10^6 cells)): 4 µL/min/1e6 cells
- half-life at 1 µM ([2]; read-out: Human In vitro T1/2): 2.87 h
- CLint scaled at 1 µM ([2]; read-out: Human Scale-up Clint): 10.2 mL/min/kg
- human hepatocyte clearance profile compared to control compounds (pooled human hepatocytes): better human hepatocyte clearance profile
- Human Hepatocyte Remaining Percentage @ 120 min (%) (pooled human hepatocytes; working cell density 2 × 10^6 viable cells/mL): 61.7%
- AUC(0-t) ([3]; read-out: Rat PO (10 mpk) AUC last): 4.3 µM·h
- Cmax ([3]; read-out: Rat PO (10 mpk) Cmax): 1380 nM
- bioavailability ([3]; read-out: Rat PO (10 mpk) F %): 71%
- reducing tumor volume compared with AMG510 (SW837 xenograft; 60 mg/kg oral once daily vs AMG510 at 60 mg/kg, FIG. 1): more effective than AMG510
- reduction of tumor volume, combined treatment vs either agent alone (SW837 xenograft; Compound 44 at 30 mg/kg combined with trametinib at 1 mg/kg, FIG. 6): much better reduction of tumor volume
- reducing tumor volume compared with AMG510 (NCI-H358 xenograft): more effective than AMG510
